From ChEMBL document CHEMBL1147619, “Syntheses and EGFR kinase inhibitory activity of 6-substituted-4-anilino [1,7] and [1,8] naphthyridine-3-carbonitriles” (Bioorg Med Chem Lett, 2004) come the findings set out here.

Molecules are shown by their SMILES. In brackets after ≈: the same amount, converted by molar mass.

One may read the IC50 as the concentration that inhibits the measured activity by half. The low end stands for greater potency in that assay, the high end for weaker potency in that assay.

For assay [1], the target named is T1, Epidermal growth factor receptor (Homo sapiens, UniProt P00533). In words: Inhibition of epidermal growth factor receptor kinase autophosphorylation.
Assay [2] concerns the target T1, Epidermal growth factor receptor. In words: Inhibition of peptide substrate phosphorylation by epidermal growth factor receptor.
Another assay deals with SW-620. In words: Inhibition of SW620 human carcinoma cell proliferation. It counts as functional, cell-based.
A further assay concerns SK-BR-3. In words: Inhibition of SKBr3 human carcinoma cell proliferation. It counts as functional, cell-based.
A further assay relates to A-431. In words: Inhibition of A431 human carcinoma cell proliferation. Type of assay: functional, cell-based.

T1 sequence (P00533 whole entry): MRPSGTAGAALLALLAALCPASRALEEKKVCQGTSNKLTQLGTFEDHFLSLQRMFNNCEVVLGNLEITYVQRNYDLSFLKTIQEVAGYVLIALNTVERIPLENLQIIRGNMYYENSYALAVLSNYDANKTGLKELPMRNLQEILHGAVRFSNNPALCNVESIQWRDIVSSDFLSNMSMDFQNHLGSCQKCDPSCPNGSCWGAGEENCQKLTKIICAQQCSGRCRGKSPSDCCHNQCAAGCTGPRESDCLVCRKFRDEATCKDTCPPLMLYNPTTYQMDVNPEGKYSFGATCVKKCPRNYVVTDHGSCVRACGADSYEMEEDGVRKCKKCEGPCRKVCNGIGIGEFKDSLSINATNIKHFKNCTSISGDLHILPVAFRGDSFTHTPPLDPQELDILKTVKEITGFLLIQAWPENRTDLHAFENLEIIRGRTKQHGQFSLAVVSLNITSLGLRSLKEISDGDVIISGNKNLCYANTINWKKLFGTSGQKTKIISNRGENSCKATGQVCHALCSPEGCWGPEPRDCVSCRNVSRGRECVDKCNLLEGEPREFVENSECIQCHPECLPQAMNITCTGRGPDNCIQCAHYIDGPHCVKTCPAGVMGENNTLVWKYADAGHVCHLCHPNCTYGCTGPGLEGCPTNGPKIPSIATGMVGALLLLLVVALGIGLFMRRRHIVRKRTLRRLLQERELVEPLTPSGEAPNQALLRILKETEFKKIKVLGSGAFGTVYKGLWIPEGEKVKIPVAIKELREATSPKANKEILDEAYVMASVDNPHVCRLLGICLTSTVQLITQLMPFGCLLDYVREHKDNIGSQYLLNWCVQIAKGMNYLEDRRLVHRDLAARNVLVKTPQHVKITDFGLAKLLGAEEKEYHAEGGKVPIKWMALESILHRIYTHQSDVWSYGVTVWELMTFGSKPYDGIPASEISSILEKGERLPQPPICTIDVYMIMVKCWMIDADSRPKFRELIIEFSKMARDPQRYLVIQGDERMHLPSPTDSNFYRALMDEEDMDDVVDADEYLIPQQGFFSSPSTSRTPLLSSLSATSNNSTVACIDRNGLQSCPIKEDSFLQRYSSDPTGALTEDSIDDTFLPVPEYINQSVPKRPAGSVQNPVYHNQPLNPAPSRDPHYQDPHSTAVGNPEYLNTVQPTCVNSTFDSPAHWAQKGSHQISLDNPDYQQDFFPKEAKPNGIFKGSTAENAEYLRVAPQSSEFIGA

`C=CC(=O)Nc1ccc2ncc(C#N)c(Nc3cccc(Br)c3)c2c1`: the IC50 stood at 86.9 nM in assay [1] and 9.7 nM in assay [2].
Consider `CC#CC(=O)Nc1ccc2ncc(C#N)c(Nc3ccc(F)c(Cl)c3)c2c1`, for which the values for the IC50 in assay [1] and in assay [2] were 1030 nM and 330 nM, respectively.
For the compound `CN(C)C/C=C/C(=O)Nc1cnc2ncc(C#N)c(Nc3cccc(Br)c3)c2c1`, the 50% inhibitory concentration (IC50) in the assay with SW-620 is over 5 µg/mL; in the assay with SK-BR-3, 4.83 µg/mL (≈ 10.7 µM); in assay [1], 4130 nM; in the assay with A-431, 2.76 µg/mL (≈ 6.12 µM); in assay [2], 2040 nM.
With `CC#CC(=O)Nc1cnc2ncc(C#N)c(Nc3cccc(Br)c3)c2c1`, the results for the IC50 in assay [1] and in assay [2] were over 10000 nM and 6270 nM, respectively.
In the case of `CN(C)CCOc1cc2c(Nc3ccc(F)c(Cl)c3)c(C#N)cnc2cn1`, the IC50 in assay [1] and in assay [2] was over 10000 nM throughout.
Consider `C=CC(=O)Nc1cnc2ncc(C#N)c(Nc3cccc(Br)c3)c2c1`, for which the IC50 in assay [1] amounted to 976 nM; in assay [2] it was 375 nM.
Regarding `CN(C)C/C=C/C(=O)Nc1ccc2ncc(C#N)c(Nc3cccc(Br)c3)c2c1`, the 50% inhibitory concentration (IC50) worked out at 2.8 µg/mL (≈ 6.22 µM) with SW-620; 0.089 µg/mL (≈ 0.198 µM) in the assay with SK-BR-3; 123 nM in assay [1]; 0.23 µg/mL (≈ 0.511 µM) with A-431; 37.2 nM in assay [2].
In the same order, the values of `CN(C)C/C=C/C(=O)Nc1cc2c(Nc3cccc(Br)c3)c(C#N)cnc2cn1` are 0.356 µg/mL (≈ 0.789 µM), 0.036 µg/mL (≈ 0.0798 µM), 8.6 nM, 0.088 µg/mL (≈ 0.195 µM) and 1.9 nM.
For the compound `CN(C)CCOc1cc2c(Nc3cccc(Br)c3)c(C#N)cnc2cn1`, the concentration for half-maximal inhibition (IC50) in assay [1] and in assay [2] was over 10000 nM in each case.
Regarding `CC#CC(=O)Nc1ccc2ncc(C#N)c(Nc3cccc(Br)c3)c2c1`, the IC50 in assay [1] is over 1000 nM; in assay [2], 259 nM.
In the same order, the values of `CC#CC(=O)Nc1cnc2ncc(C#N)c(Nc3ccc(F)c(Cl)c3)c2c1` are 6790 nM and 3760 nM.
